Source: ChEMBL document CHEMBL5715945 (Cancer Biol Ther, 2010)
Active and inactive are the calls of the source. The calls are words filed in the database; no cut-off is given here.

Key:
[1] = target: Insulin-like growth factor 1 receptor (Homo sapiens) (UniProt P08069); assay: Inhibition of IGF-1R (unknown origin) at 0.1 uM relative to control; values are per cent of control
MDA-MB-231 = assay: Upregulation of FAK level in human MDA-MB-231 cells harbouring mCherry red fluorescent protein at 0.1 to 1 uM incubated for 1 hr by immunoblotting analysis; assay type: functional, cell-based; conditions: dose 0.1-1 µM
4T1 [2] = assay: Effect on p130Cas phosphorylation in mouse 4T1 cultured as 3D spheroids at 0.1 to 1 uM incubated for 24 hrs by immunoblotting analysis; assay type: functional, cell-based; conditions: dose 0.1-1 µM
4T1 [3] = assay: Inhibition of cell migration in mouse 4T1 cells at 1 uM incubated for 22 hrs by wound healing assay; assay type: functional, cell-based
[4] = target: Protein kinase C alpha type (Homo sapiens) (UniProt P17252); assay: Inhibition of PKCa (unknown origin) at 0.1 uM relative to control; values are per cent of control
[5] = target: Activated CDC42 kinase 1 (Homo sapiens) (UniProt Q07912); assay: Inhibition of ACK1 (unknown origin) at 0.1 uM relative to control; values are per cent of control
ID8 = assay: Antitumor activity against mouse ID8 suspended cells assessed as reduction in cell viability at 0.1 to 1 uM measured after 15 days by trypan blue staining based analysis; assay type: functional; conditions: dose 0.1-1 µM, time 15.0 day
[6] = target: Casein kinase I isoform gamma-1 (Homo sapiens) (UniProt Q9HCP0); assay: Inhibition of CK1g1 (unknown origin) at 0.1 uM relative to control; values are per cent of control
[7] = target: Fibroblast growth factor receptor 1 (Homo sapiens) (UniProt P11362); assay: Inhibition of FGFR1 (unknown origin) at 0.1 uM relative to control; values are per cent of control
Homo sapiens = species: Homo sapiens; assay: Inhibition of p70S6K (unknown origin) at 0.1 uM relative to control; values are per cent of control
[8] = target: cAMP-dependent protein kinase (PKA) (Homo sapiens) (UniProt P22694+P17612+P22612); assay: Inhibition of PKA (unknown origin) at 0.1 uM relative to control; values are per cent of control
[9] = target: Proto-oncogene tyrosine-protein kinase Src (Homo sapiens) (UniProt P12931); assay: Inhibition of c-SRC (unknown origin) at 0.1 uM relative to control; values are per cent of control
[10] = target: Vascular endothelial growth factor receptor 2 (Homo sapiens) (UniProt P35968); assay: Inhibition of KDR (unknown origin) at 0.1 uM relative to control; values are per cent of control
[11] = target: Insulin receptor (Homo sapiens) (UniProt P06213); assay: Inhibition of IR (unknown origin) at 1 uM relative to control; values are per cent of control
4T1 [12] = assay: Effect on Src phosphorylation at Tyr416 residue in mouse 4T1 cells harbouring mCherry red fluorescent protein at 0.1 to 1 uM incubated for 1 hr by immunoblotting analysis; assay type: functional, cell-based; conditions: dose 0.1-1 µM
4T1 [13] = assay: Induction of apoptosis in mouse 4T1 suspended cells at 0.1 uM incubated for 72 hrs by PI staining based flow cytometry analysis; assay type: functional, cell-based
4T1 [14] = assay: Inhibition of colony formation in mouse 4T1 cells assessed as reduction in cell size measured after 10 days by phase contrast microscopy analysis; assay type: functional, cell-based; conditions: dose 0.4-1 µM, time 10.0 day
4T1 [15] = assay: Induction of apoptosis in mouse 4T1 cells assessed as increase in cell membrane blebbing at 0.4 to 1 uM measured after 2 days by phase contrast microscopy analysis; assay type: functional, cell-based; conditions: dose 0.4-1 µM, time 2.0 day
[16] = target: Proto-oncogene tyrosine-protein kinase Src (Homo sapiens) (UniProt P12931); assay: Inhibition of c-SRC (unknown origin) at 1 uM relative to control; values are per cent of control
4T1 [17] = assay: Induction of apoptosis in mouse 4T1 suspended cells at 0.1 to 1 uM incubated for 48 hrs by PI staining based flow cytometry analysis; assay type: functional, cell-based; conditions: dose 0.1-1 µM
[18] = target: Mitogen-activated protein kinase 1 (Homo sapiens) (UniProt P28482); assay: Inhibition of MAPK1 (unknown origin) at 0.1 uM relative to control; values are per cent of control
4T1 [19] = assay: Induction of apoptosis in mouse 4T1 adherent cells assessed as increase in cleaved caspase 3 expression at 0.4 uM incubated for 24 hrs by immunoblotting analysis; assay type: functional, cell-based
4T1 [20] = assay: Inhibition of colony formation in mouse 4T1 cells assessed as reduction in cell number at 0.4 to 1 uM measured after 4 days by phase contrast microscopy analysis; assay type: functional, cell-based; conditions: dose 0.4-1 µM, time 4.0 day
[21] = target: Tyrosine-protein kinase ZAP-70 (Homo sapiens) (UniProt P43403); assay: Inhibition of ZAP-70 (unknown origin) at 0.1 uM relative to control; values are per cent of control
[22] = target: Platelet-derived growth factor receptor beta (Homo sapiens) (UniProt P09619); assay: Inhibition of PDGFRb (unknown origin) at 1 uM relative to control; values are per cent of control
4T1 [23] = assay: Inhibition of cell migration in mouse 4T1 cells incubated for 4 hrs by millicell-motility assay; assay type: functional, cell-based; conditions: dose 0.1-1 µM
4T1 [24] = assay: Inhibition of cell migration in mouse 4T1 cells assessed as wound closure at 1 uM incubated for 22 hrs by wound healing assay (reference value: 89%); assay type: functional; parameters: scale not given: the % may be the effect or the level left
[25] = target: Proto-oncogene tyrosine-protein kinase receptor Ret (Homo sapiens) (UniProt P07949); assay: Inhibition of Ret (unknown origin) at 0.1 uM relative to control; values are per cent of control
[26] = target: Angiopoietin-1 receptor (Homo sapiens) (UniProt Q02763); assay: Inhibition of Tie2 (unknown origin) at 0.1 uM relative to control; values are per cent of control
[27] = target: Fibroblast growth factor receptor 1 (Homo sapiens) (UniProt P11362); assay: Inhibition of FGFR1 (unknown origin) at 1 uM relative to control; values are per cent of control
4T1 [28] = assay: Effect on p130Cas phosphorylation at Tyr410 residue in mouse 4T1 cultured as 3D spheroids at 0.1 uM incubated for 24 hrs by immunoblotting analysis; assay type: functional, cell-based
4T1 [29] = assay: Effect on Src phosphorylation at Y416 residue in mouse 4T1 cultured as 3D spheroids at 0.1 to 1 uM incubated for 24 hrs by immunoblotting analysis; assay type: functional, cell-based; conditions: dose 0.1-1 µM
4T1 [30] = assay: Induction of apoptosis in mouse 4T1 cells assessed as increase in cell apoptosis at 0.1 to 1 uM measured after 2 days by visual analysis; assay type: functional; conditions: dose 0.1-1 µM, time 2 day

Proto-oncogene tyrosine-protein kinase Src (Homo sapiens), sequence (P12931 2-536 limits assumed): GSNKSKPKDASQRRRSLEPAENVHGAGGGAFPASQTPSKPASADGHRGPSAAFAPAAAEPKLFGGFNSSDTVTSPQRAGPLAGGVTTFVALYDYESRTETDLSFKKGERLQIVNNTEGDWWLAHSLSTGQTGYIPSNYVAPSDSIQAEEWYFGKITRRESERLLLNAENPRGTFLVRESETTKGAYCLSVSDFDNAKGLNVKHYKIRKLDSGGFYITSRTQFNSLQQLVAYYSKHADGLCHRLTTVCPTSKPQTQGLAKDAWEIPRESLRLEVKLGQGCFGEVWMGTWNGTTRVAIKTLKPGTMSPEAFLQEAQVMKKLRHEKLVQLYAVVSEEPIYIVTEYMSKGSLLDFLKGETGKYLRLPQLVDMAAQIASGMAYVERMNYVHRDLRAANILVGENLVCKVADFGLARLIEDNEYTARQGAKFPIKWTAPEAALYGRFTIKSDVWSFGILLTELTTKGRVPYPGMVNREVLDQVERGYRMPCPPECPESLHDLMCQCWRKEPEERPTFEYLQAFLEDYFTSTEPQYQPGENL
Fibroblast growth factor receptor 1 (Homo sapiens), sequence (P11362 22-822 limits assumed): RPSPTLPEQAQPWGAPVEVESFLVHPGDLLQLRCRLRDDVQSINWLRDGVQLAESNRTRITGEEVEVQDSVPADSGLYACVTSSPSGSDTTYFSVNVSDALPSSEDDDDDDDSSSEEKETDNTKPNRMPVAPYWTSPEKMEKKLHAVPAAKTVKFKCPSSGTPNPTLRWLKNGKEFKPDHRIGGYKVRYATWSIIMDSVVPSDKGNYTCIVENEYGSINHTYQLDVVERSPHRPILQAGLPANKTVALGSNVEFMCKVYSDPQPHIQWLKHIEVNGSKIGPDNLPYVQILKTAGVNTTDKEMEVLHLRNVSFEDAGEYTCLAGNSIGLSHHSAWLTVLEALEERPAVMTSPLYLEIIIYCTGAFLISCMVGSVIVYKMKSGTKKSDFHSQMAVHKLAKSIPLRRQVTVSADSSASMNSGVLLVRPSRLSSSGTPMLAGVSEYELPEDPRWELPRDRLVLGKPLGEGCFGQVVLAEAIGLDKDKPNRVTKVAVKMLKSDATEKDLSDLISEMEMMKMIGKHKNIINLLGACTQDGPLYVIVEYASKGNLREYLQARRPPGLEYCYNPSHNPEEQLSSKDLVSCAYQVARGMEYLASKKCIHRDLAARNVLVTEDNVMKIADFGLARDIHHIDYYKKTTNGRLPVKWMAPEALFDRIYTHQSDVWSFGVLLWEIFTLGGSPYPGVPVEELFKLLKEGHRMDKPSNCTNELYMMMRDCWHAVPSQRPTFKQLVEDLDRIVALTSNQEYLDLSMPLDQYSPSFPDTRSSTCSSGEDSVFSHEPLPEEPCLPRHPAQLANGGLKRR
Insulin-like growth factor 1 receptor (Homo sapiens), sequence (P08069 31-736 limits assumed): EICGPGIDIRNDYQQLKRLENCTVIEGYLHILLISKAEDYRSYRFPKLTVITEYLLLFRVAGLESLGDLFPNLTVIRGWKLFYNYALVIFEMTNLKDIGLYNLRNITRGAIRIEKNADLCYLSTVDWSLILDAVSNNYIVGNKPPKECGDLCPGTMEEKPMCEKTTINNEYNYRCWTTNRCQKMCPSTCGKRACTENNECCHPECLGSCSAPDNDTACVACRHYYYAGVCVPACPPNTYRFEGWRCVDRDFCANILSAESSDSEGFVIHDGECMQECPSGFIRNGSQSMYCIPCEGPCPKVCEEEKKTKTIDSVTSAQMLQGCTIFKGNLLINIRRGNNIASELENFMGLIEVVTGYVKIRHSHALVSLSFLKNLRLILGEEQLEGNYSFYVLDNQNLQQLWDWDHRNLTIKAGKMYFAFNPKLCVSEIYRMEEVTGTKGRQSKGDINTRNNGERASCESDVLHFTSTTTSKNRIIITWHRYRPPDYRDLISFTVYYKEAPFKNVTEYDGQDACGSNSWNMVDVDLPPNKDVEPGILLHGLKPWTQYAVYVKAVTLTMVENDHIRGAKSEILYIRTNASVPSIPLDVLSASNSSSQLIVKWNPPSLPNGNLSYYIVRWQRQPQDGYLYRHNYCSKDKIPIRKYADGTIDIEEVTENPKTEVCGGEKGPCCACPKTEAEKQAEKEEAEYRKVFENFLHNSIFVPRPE
Insulin-like growth factor 1 receptor (Homo sapiens), sequence (P08069 741-1367 limits assumed): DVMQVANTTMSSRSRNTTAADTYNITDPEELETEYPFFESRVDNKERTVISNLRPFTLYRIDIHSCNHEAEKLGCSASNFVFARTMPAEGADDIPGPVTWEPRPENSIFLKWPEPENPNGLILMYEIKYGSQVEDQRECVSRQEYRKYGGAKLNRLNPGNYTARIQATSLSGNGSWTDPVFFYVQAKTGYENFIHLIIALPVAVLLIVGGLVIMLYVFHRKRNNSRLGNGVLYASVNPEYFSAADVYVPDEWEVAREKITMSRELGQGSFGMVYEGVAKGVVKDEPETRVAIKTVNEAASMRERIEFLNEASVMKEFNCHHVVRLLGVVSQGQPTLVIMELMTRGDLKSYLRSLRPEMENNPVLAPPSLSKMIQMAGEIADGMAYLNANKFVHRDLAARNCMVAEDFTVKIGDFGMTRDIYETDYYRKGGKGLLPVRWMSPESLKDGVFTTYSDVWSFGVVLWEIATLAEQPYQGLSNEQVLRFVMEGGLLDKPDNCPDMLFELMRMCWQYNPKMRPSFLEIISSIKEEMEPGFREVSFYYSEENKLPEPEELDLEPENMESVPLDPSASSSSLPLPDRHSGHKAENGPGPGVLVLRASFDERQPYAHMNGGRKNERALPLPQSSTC
Platelet-derived growth factor receptor beta (Homo sapiens), sequence (P09619 whole entry): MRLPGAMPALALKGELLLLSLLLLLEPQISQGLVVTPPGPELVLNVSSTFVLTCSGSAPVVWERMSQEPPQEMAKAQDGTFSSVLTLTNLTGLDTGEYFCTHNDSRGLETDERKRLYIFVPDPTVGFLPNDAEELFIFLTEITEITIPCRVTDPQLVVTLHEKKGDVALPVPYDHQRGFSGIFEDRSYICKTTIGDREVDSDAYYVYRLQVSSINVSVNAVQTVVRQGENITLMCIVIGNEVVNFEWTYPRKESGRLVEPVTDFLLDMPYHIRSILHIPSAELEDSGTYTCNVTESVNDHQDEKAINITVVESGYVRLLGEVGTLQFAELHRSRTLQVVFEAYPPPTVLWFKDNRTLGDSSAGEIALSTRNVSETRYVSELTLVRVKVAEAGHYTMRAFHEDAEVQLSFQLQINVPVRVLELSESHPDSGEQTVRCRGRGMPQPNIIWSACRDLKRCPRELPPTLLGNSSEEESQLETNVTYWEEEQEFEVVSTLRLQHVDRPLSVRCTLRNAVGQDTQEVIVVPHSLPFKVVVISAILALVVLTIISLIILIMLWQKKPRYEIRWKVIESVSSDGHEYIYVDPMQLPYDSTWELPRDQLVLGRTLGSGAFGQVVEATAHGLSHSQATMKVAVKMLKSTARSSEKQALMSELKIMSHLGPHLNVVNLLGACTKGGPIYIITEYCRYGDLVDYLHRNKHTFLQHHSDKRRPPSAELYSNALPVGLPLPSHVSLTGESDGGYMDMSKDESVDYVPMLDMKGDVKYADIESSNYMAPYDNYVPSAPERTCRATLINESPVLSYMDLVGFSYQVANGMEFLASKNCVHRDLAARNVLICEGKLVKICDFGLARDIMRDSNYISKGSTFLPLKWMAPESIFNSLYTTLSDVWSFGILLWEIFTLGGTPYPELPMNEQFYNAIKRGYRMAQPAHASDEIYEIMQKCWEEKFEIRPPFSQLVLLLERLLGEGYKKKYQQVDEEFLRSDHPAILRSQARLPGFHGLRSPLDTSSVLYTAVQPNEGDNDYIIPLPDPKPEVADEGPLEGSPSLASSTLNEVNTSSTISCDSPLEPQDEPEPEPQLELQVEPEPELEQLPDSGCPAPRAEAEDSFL
Activated CDC42 kinase 1 (Homo sapiens), sequence (Q07912 whole entry, looked up): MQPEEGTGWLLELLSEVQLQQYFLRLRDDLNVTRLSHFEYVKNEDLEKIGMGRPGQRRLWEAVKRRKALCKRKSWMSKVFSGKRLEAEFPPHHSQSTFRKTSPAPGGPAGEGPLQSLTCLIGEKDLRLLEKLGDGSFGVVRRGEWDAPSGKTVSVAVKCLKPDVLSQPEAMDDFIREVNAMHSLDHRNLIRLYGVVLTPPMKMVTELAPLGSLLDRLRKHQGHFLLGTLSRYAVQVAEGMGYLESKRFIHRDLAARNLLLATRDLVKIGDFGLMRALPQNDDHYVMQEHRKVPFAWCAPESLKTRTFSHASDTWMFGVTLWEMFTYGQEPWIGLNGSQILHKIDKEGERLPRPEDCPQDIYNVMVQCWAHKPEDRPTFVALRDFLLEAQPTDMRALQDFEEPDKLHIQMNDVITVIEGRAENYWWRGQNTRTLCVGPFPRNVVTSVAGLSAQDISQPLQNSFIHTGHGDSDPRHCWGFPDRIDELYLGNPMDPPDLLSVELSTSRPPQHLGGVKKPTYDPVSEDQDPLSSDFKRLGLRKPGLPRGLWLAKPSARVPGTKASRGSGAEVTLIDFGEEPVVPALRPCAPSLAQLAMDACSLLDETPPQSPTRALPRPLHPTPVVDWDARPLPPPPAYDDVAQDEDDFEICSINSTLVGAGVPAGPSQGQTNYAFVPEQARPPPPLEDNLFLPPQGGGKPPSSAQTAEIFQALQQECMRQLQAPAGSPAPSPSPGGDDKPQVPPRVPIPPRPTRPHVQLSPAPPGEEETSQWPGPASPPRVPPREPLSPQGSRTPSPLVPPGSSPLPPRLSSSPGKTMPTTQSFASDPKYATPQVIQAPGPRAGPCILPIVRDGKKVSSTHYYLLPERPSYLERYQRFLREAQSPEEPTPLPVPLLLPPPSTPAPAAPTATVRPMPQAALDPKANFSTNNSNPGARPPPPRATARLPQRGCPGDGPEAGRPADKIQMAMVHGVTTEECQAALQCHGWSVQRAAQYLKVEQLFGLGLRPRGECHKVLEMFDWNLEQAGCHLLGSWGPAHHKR

Question: With `CNC(=O)c1ccccc1Nc1cc(Nc2ccc(N3CCOCC3)cc2OC)ncc1C(F)(F)F` [VS-4718] as the compound, how does the residual activity [1] read?
Answer: 123%

Question: And the Activity (MDA-MB-231)?
Answer: Active

Question: What about the Activity (4T1 [2]) of the same compound?
Answer: inactive

Question: What about the inhibition (4T1 [3]) of the same compound?
Answer: Active

Question: And the residual activity [4]?
Answer: 101%

Question: What about the residual activity [5] of the same compound?
Answer: 56%

Question: And the Activity (ID8)?
Answer: Active

Question: And the residual activity [6]?
Answer: 111%

Question: What about the residual activity [7] of the same compound?
Answer: 98%

Question: What about the residual activity (Homo sapiens) of the same compound?
Answer: 95%

Question: And the residual activity [8]?
Answer: 114%

Question: What about the residual activity [9] of the same compound?
Answer: 98%

Question: And the residual activity [10]?
Answer: 118%

Question: And the residual activity [11]?
Answer: 40%

Question: What about the Activity (4T1 [12]) of the same compound?
Answer: inactive

Question: And the Activity (4T1 [13])?
Answer: Active

Question: What about the inhibition (4T1 [14]) of the same compound?
Answer: Dose-Dependent Effect

Question: And the Activity (4T1 [15])?
Answer: Active

Question: And the residual activity [16]?
Answer: 72%

Question: What about the Activity (4T1 [17]) of the same compound?
Answer: inactive

Question: And the residual activity [18]?
Answer: 78%

Question: What about the Activity (4T1 [19]) of the same compound?
Answer: inactive

Question: What about the inhibition (4T1 [20]) of the same compound?
Answer: Active

Question: What about the residual activity [21] of the same compound?
Answer: 70%

Question: What about the residual activity [22] of the same compound?
Answer: 105%

Question: And the inhibition (4T1 [23])?
Answer: Dose-Dependent Effect

Question: What about the Activity (4T1 [24]) of the same compound?
Answer: 40%

Question: What about the residual activity [25] of the same compound?
Answer: 86%

Question: What about the residual activity [26] of the same compound?
Answer: 97%

Question: And the residual activity [27]?
Answer: 97%

Question: What about the Activity (4T1 [28]) of the same compound?
Answer: Active

Question: What about the Activity (4T1 [29]) of the same compound?
Answer: inactive

Question: What about the Activity (4T1 [30]) of the same compound?
Answer: >50%
